pIC50: −log10 of the molar value.
How the values were obtained:
[1] = Cytotoxicity against human HeLa cells incubated for 8 hrs measured after 6 hrs by Alamar blue assay; assay type: cell-based; details: read-out: LC50
[2] = molecular target: Heat shock factor protein (Homo sapiens) (UniProt Q00613+Q03933+Q9ULV5); experiment: Activation of HSF in human HeLa cell clone 13B after 8 hrs by luciferase reporter gene assay; assay type: cell-based
[3] = Cytotoxicity against African green monkey 37RC cells incubated for 8 hrs measured after 6 hrs by neutral red assay; assay type: cell-based; details: chlorocebus aethiops, read-out: LC50
Respirovirus muris = experiment: Antiviral activity against Sendai virus infected in African green monkey 37RC cells assessed as inhibition of viral replication at 24 hrs by haemagglutinin titration method; assay type: functional; details: read-out: ID50 (the source's name)
[4] = Cytotoxicity against African green monkey 37RC cells by microscopic method; assay type: cell-based; details: chlorocebus aethiops
[5] = Toxicity in iv dosed anaesthetized rat assessed as decrease in blood pressure administered as infusion; assay type: organism-based; details: in vivo

| Structure (SMILES) | CC50 at 8 h [1] [µM] | AC200 [2] [µM] | CC50 at 8 h [3] [µM] | pIC50 (Respirovirus muris) | TD100 [4] [µM] | Activity [5] |
| --- | --- | --- | --- | --- | --- | --- |
| CCCCCC/C=C1/C(=O)C=CC1C (configuration not stated) | 234 | < 6.2 | – | – | – | – |
| C[C@H]1C=CC(=O)/C1=C/c1ccc([N+](=O)[O-])cc1 | > 800 | 2 | – | – | – | – |
| CC(C)(C)OC(=O)N[C@@H](CS[C@@H]1CC(=O)/C(=C/c2ccccc2)[C@H]1NC(=O)OC(C)(C)C)C(=O)O | – | < 6.2 | 25 | – | – | – |
| CCCCC1C=CC(=O)/C1=C/CC(C)C (configuration not stated) | 227 | 13 | – | 6.52 | 50 | – |
| CC(C)/C=C1\C(=O)C=CC1NC(=O)c1ccccc1 (configuration not stated) | 50 | < 6.2 | 4 | 6.52 | 10 | – |
| CC(C)(C)OC(=O)NC1C=CC(=O)C1 (configuration not stated) | > 800 | 51 | – | 4.70 | 100 | – |
| O=C1C=CC(Nc2ccccc2)C1 (configuration not stated) | > 800 | 27 | – | – | – | – |
| CCOC(=O)N(C(=O)OC(C)(C)C)C1C=CC(=O)C1 (configuration not stated) | – | 18 | 233 | – | – | – |
| CC(C)(C)OC(=O)NC1C=CC(=O)/C1=C/c1ccc(Cl)cc1 (configuration not stated) | > 800 | 2 | 3.4 to 72 | 6.22 | 10 | – |
| CC(C)(C)OC(=O)NC1C=CC(=O)/C1=C/c1ccccc1 (configuration not stated) | > 800 | 1.8 | 33 | 6.22 | 10 | – |
| Cc1cc(C)c(/C=C2/C(=O)C=C[C@@H]2NC(=O)OC(C)(C)C)c(C)c1 | – | < 6.2 | 25 | – | – | – |
| O=C1C[C@H](Sc2ccc3ccccc3c2)[C@H](NC(=O)Oc2ccccc2)C1 | – | 28 | 183 | – | – | – |
| CCCCC1C=CC(=O)/C1=C/C1CC1 (configuration not stated) | 239 | 8 | – | – | – | – |
| CCCCC1C=CC(=O)/C1=C/C(C)C (configuration not stated) | 506 | 13 | – | 6.52 | 10 | – |
| CC(C)/C=C1/C(=O)C=CC1NC(=O)OC(C)(C)C (configuration not stated) | > 800 | 2.8 | 4 | 6.00 | 50 | – |
| CCOC(=O)NC1C=CC(=O)C1 (configuration not stated) | – | 49 | 104 | – | – | – |
| CC1C=CC(=O)/C1=C/c1ccccc1 (configuration not stated) | 314 | 3 | – | 6.05 | 50 | – |
| CCCCC[C@H](O)/C=C/[C@H]1C=CC(=O)[C@@H]1CCCCCCC(=O)O [PROSTAGLANDIN A1] | – | – | – | – | – | Toxic |
| CC(C)/C=C1/C(=O)C=C[C@H]1NC(=O)OC(C)(C)C | > 800 | 5 | 4 | 6.40 | 10 | – |
| O=C1C=CC(NC(=O)c2ccccc2)C1 (configuration not stated) | > 800 | 51 | 59 | 4.70 | 100 | – |
| O=C1C[C@@H](NC(=O)Oc2ccccc2)[C@H](Sc2ccc3ccccc3c2)C1 | – | 26 | 113 | – | – | – |
| O=C1C=CC(NC(=O)CCl)C1 (configuration not stated) | – | < 6.2 | 79 | – | – | – |
| CC(C)/C=C1/C(=O)C=CC1C (configuration not stated) | > 800 | 13 | – | – | – | – |
| Cc1ccc(S(=O)(=O)NC(=O)OC2C=CC(=O)C2)cc1 (configuration not stated) | > 800 | 13 | – | – | – | – |
| CCCCC/C=C1/C(=O)C=CC1C (configuration not stated) | > 800 | > 100 | – | – | – | – |
| COC(=O)[C@H](CSC1CC(=O)/C(=C/C(C)C)C1C)NC(=O)OC(C)(C)C (some centres not stated) | > 800 | 18 | – | – | – | – |
| CC(C)/C=C1/C(=O)C=C[C@@H]1NC(=O)OC(C)(C)C | > 800 | 1.8 | 4 | 6.00 | 50 | – |
| CCCCC[C@H](O)/C=C/[C@H]1[C@H](O)CC(=O)[C@@H]1CCCCCCC(=O)O [ALPROSTADIL] | – | – | – | – | – | Toxic |
| COC(=O)[C@H](CS[C@@H]1CC(=O)C[C@H]1NC(=O)Oc1ccccc1)NC(=O)OC(C)(C)C | – | 13 | 76 | – | – | – |
| O=C1C=CC(NC(=O)Oc2ccccc2)C1 (configuration not stated) | – | 10 | 74 | – | – | – |

Source: ChEMBL document CHEMBL3880439, “Cyclopentanone and cyclopentanone derivatives as potent activators of HSF-1” (2004)
